Measured values: article PMC3726451, “Coumestrol from the national cancer Institute’s natural product library is a novel inhibitor of protein kinase CK2” (BMC Pharmacology & Toxicology, 2013)

How the values were obtained:
Casein kinase 2 (CK2) = target: T1, Casein kinase 2 (CK2) (Homo sapiens, UniProt P68400); experiment: ADP-Glo kinase assay, single concentration […], duplicates; type: biochemical; settings: read-out: % inhibition at 10 μM
T1 construct: gene CSNK2A1

[1] = target: T2, vascular endothelial growth factor receptor 3 (VEGFR3) (Homo sapiens, UniProt P35916); experiment: ADP-Glo kinase selectivity panel, single concentration […] with […] ATP; type: biochemical
T2 construct: gene FLT4
T2 sequence (P35916 25-1363): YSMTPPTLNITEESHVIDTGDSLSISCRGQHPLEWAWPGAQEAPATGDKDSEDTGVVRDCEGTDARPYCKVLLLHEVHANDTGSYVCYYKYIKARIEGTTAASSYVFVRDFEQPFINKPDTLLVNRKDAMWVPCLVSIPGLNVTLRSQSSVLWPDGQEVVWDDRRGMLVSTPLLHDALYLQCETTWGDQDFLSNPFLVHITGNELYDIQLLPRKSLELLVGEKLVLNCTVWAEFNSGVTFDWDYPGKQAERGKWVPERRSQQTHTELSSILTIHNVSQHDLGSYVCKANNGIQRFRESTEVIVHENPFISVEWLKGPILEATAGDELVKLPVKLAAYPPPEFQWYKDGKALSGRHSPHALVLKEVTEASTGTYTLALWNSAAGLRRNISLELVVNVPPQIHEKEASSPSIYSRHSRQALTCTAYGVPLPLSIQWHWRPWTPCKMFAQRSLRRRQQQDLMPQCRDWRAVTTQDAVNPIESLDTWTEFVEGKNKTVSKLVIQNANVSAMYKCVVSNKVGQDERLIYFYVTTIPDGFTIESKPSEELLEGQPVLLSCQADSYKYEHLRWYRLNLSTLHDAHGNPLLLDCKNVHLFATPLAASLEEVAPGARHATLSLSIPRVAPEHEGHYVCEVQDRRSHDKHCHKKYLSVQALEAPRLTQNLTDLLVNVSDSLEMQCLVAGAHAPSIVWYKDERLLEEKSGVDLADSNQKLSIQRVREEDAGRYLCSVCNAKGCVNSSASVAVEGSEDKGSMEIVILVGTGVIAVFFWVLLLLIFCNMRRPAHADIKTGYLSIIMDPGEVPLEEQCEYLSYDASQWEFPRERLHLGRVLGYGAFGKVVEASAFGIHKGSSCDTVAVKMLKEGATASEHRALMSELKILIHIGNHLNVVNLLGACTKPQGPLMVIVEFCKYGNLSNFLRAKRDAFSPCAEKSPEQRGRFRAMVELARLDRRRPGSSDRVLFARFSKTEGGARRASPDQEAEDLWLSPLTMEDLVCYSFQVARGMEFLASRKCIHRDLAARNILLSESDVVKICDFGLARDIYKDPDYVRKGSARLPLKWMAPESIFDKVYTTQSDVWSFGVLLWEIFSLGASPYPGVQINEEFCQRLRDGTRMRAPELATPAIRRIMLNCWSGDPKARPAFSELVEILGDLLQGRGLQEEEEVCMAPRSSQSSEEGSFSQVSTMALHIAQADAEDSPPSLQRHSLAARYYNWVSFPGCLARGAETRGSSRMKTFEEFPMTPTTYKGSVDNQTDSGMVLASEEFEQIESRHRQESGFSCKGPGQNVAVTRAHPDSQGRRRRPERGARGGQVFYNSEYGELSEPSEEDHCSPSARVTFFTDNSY

T1 sequence (P68400 whole entry): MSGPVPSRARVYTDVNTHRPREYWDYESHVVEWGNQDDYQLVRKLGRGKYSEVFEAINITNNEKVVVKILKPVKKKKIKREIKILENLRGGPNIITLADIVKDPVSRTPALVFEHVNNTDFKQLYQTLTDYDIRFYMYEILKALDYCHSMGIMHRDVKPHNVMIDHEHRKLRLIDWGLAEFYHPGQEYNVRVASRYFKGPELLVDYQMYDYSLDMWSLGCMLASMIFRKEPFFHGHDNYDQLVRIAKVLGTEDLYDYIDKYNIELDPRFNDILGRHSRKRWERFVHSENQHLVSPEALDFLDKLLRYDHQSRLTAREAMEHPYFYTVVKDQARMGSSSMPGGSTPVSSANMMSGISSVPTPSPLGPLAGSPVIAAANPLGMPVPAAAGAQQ
T1 sequence (P67870 2-215 partner): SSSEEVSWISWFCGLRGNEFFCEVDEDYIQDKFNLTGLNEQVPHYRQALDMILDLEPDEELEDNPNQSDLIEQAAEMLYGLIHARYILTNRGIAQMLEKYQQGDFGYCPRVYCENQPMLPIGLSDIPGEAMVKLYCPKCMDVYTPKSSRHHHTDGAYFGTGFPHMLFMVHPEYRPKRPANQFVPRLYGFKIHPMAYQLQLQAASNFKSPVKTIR

Row | SMILES | inhibition at 10 µM (Casein kinase 2 (CK2)) | inhibition at 10 µM [1]
1 | COc1cc(/C=C/C(=O)CC(=O)/C=C/c2ccc(O)c(OC)c2)ccc1O [1-D6, (1E,6E)-1,7-Bis(4-hydroxy-3-methoxyphenyl)-1,6-heptadiene-3,5-dione] | > 50% | 
2 | COc1cccc2c1cc([N+](=O)[O-])c1c(C(=O)O)cc3c(c12)OCO3 [1-F3, 8-methoxy-6-nitro phenanthro[3,4-d] [1, 3] dioxole-5-carboxylic acid] | > 50% | 
3 | O=c1oc2cc(O)ccc2c2oc3cc(O)ccc3c12 [1-F4, 3,9-Dihydroxy-6-benzofurano [3,2-c]chromenone] |  | 59%
